Measurements taken from patent US4472376A, “Pharmaceutical insertion compositions and a process for producing the same” (Toko Yakuhin Kogyo Kabushiki Kaisha, priority 1976, dated 1984).

Columns and labels:
[1] = known value; cited from earlier work
[2] = Concentration of 5-fluorouracil in the serum after insertion into the rectum of a rabbit; type: in vivo; settings: insertion composition of Example 16, rabbit; 3 hours after the insertion
Description: When the pharmaceutical insertion composition of the present invention is inserted into the rectum, its concentration in the serum is as follows:
A pharmaceutical insertion composition obtained in Example 16 is inserted into the rectum of a rabbit having the body weight of 3.2 kg at the rate of 20 mg of 5-fluoroaracil per 1 kg of the body weight, and the concentration of 5-fluorouracil in the serum after the insertion is measured to show the following results: […]

[3] = 5-fluorouracil blood concentration / absorption by other dosage forms, compared with effective concentration in blood; type: in vivo
From the text: Thus, it has been clearly known that the dosage in the form of the insertion composition of the present invention is quite excellent.

In the case of `O=c1[nH]cc(F)c(=O)[nH]1` [5-fluorouracil], the “effective concentration in blood” value [1] is given as “about 0.08 μg/ml”, the “maintenance of effective concentration in blood after rectal insertion of the gel composition” value [2] is given as “maintains sufficient effective concentration in blood” and the “absorption from conventional suppository or liquid form” value ([3]; conventional suppository or liquid) is given as “barely absorbed”. For the same compound, the “concentration in blood after injection into vein” value ([3]; injected into vein, 30 minutes later) was “less than the effective blood concentration”.
